The first assay deals with Human VPS34 (Homo sapiens (Human), UniProt Q8NEB9). Nature of the assay: Human VPS34 enzyme assay (Adapta TR-FRET). It counts as biochemical. Conditions: IC50 range class. In general terms: TR-FRET usually uses a lanthanide donor and a delayed reading to cut background.
Sequence of Human VPS34 (Q8NEB9 whole entry): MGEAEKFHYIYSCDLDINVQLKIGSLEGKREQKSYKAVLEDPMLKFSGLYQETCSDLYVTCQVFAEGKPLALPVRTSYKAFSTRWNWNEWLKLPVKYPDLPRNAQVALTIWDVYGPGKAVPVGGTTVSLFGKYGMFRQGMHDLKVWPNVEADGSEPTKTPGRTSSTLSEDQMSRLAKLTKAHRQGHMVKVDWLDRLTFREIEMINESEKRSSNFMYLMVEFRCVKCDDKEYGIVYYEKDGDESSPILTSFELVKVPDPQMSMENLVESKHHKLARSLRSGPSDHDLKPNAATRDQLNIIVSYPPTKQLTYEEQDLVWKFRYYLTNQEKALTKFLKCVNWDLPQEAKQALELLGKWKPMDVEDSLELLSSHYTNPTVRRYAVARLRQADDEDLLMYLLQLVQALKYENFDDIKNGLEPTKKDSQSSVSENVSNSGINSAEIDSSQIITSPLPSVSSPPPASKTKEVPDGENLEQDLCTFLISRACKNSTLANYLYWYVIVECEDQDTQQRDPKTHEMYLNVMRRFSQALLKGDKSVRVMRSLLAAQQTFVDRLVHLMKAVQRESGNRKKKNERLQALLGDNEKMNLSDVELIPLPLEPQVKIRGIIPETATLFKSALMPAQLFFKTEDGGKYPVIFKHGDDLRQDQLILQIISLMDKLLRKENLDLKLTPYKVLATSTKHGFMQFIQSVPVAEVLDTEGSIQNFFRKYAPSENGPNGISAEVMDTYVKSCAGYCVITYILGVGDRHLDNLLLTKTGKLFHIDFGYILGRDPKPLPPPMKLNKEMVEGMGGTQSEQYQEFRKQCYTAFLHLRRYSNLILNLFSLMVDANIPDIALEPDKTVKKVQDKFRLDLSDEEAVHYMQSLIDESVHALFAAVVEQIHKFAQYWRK
One may read the IC50 as the concentration at which inhibition is half-maximal. A higher IC50 goes with weaker potency in that assay. Turning to `CC(=O)Nc1cc(-c2cnc(C)c(NS(=O)(=O)c3nccn3C)c2)ccn1` [Compound I-92, N-(6-methyl-5-{[(1-methyl-1H-imidazol-2-yl)sulfonyl]amino}-3,4′-bipyridin-2′-yl)acetamide], the IC50 is 0.01 to 0.05 µM.

The assay is the same for the next values; noted with them: compound concentration 1.11 μM; read-out: Percent Inhibition.
Usually inhibition stands for the drop in the measured response relative to a control, in per cent. For the compound `CC(=O)Nc1cc(-c2cnc3[nH]cc(CN(C)C)c3c2)ccn1` [Compound I-85], the inhibition at 1.11 µM came to 90%.

Regarding `CC(=O)Nc1cc(-c2ccc(S(=O)(=O)Nc3cc(-c4ccnc(NC(C)=O)c4)cnc3C)c(F)c2)ccn1` [Compound I-86, N-(4-{4-[(2′-acetamido-6-methyl-3,4′-bipyridin-5-yl)sulfamoyl]-3-fluorophenyl}pyridin-2-yl)acetamide], the inhibition at 1.11 µM was > 99%.

Regarding `CC(=O)Nc1cc(-c2cnc(N)c(S(=O)(=O)N3CCCC3)c2)ccn1` [Compound I-87, N-[6-amino-5-(pyrrolidin-1-ylsulfonyl)-3,4′-bipyridin-2′-yl]acetamide], the inhibition at 1.11 µM is > 99%.

Regarding `CC(=O)Nc1cc(-c2cnc(C)c(N3CCCS3(=O)=O)c2)ccn1` [Compound I-88, N-[5-(1,1-dioxidoisothiazolidin-2-yl)-6-methyl-3,4′-bipyridin-2′-yl]acetamide], the inhibition at 1.11 µM is > 99%.

For `CNS(=O)(=O)c1cc(-c2ccnc(NC(C)=O)c2)cnc1N` [Compound I-89, N-[6-amino-5-(methylsulfamoyl)-3,4′-bipyridin-2′-yl]acetamide], the inhibition at 1.11 µM was > 99%.

As to `CC(=O)Nc1cc(-c2cnc(C)c(NS(=O)(=O)c3ccc(C(F)(F)F)cc3)c2)ccn1` [Compound I-90, N-[6-methyl-5-({[4-(trifluoromethyl)phenyl]sulfonyl}amino)-3,4′-bipyridin-2′-yl]acetamide], the inhibition at 1.11 µM was > 99%.

With `CC(=O)Nc1cc(-c2cnc(N)c(C(=O)Nc3cccnc3)c2)ccn1` [Compound I-91, 2′-acetamido-6-amino-N-(pyridin-3-yl)-3,4′-bipyridine-5-carboxamide], the inhibition at 1.11 µM was > 99%.

For `CC(=O)Nc1cc(-c2cnc(C)c(NS(=O)(=O)c3nccn3C)c2)ccn1` [Compound I-92, N-(6-methyl-5-{[(1-methyl-1H-imidazol-2-yl)sulfonyl]amino}-3,4′-bipyridin-2′-yl)acetamide], the inhibition at 1.11 µM was > 99%.

Consider `CC(=O)Nc1cc(-c2cnc3ccn(CC4CC4)c3c2)ccn1` [Compound I-93], for which the inhibition at 1.11 µM came out at 86%.

`CC(=O)Nc1cc(-c2cnc(C)c(NS(=O)(=O)c3ccc(Cl)cc3F)c2)ccn1` [Compound I-94, N-(5-{[(4-chloro-2-fluorophenyl)sulfonyl]amino}-6-methyl-3,4′-bipyridin-2′-yl)acetamide]: the inhibition at 1.11 µM is 98%.

`CC(=O)Nc1cc(-c2cnc(N)c(S(C)(=O)=O)c2)ccn1` [Compound I-95, N-[6-amino-5-(methylsulfonyl)-3,4′-bipyridin-2′-yl]acetamide]: the inhibition at 1.11 µM was > 99%.

Take `CC(=O)Nc1cc(-c2cnc(C)c(N(C)S(C)(=O)=O)c2)ccn1` [Compound I-96, N-{6-methyl-5-[methyl(methylsulfonyl)amino]-3,4′-bipyridin-2′-yl}acetamide]: the inhibition at 1.11 µM was > 99%.

On to `CC(=O)Nc1cc(-c2cnc(N)c(S(=O)(=O)Nc3cccc(Cl)c3)c2)ccn1` [Compound I-97, N-{6-amino-5-[(3-chlorophenyl)sulfamoyl]-3,4′-bipyridin-2′-yl}acetamide], for which the inhibition at 1.11 µM is > 99%.

For the compound `CC(=O)Nc1cc(-c2cnc(N)c(S(=O)(=O)Nc3ccc4ccccc4c3)c2)ccn1` [Compound I-98, N-[6-amino-5-(2-naphthylsulfamoyl)-3,4′-bipyridin-2′-yl]acetamide], the inhibition at 1.11 µM was > 99%.

As to `CC(=O)Nc1cc(-c2cnc(N)c(S(=O)(=O)Cc3ccc(Cl)cc3)c2)ccn1` [Compound I-99, N-{6-amino-5-[(4-chlorobenzyl)sulfonyl]-3,4′-bipyridin-2′-yl}acetamide], the inhibition at 1.11 µM is > 99%.

With `CNc1ncc(-c2ccnc(NC(C)=O)c2)cc1S(=O)(=O)Nc1ccccc1` [Compound I-100, N-[6-(methylamino)-5-(phenylsulfamoyl)-3,4′-bipyridin-2′-yl]acetamide], the inhibition at 1.11 µM is > 99%.

On to `CC(=O)Nc1cc(-c2cnc(N)c(S(=O)(=O)NC3CCCCC3)c2)ccn1` [Compound I-101, N-[6-amino-5-(cyclohexylsulfamoyl)-3,4′-bipyridin-2′-yl]acetamide], for which the inhibition at 1.11 µM is > 99%.

In the case of `CC(=O)Nc1cc(-c2cncc(NS(=O)(=O)c3ccc(F)cc3F)c2C)ccn1` [Compound I-102, N-(5-{[(2,4-difluorophenyl)sulfonyl]amino}-4-methyl-3,4′-bipyridin-2′-yl)acetamide], the inhibition at 1.11 µM is > 99%.

Take `CC(=O)Nc1cc(-c2cnc3[nH]cc(S(=O)(=O)N4CCN(C)CC4)c3c2)ccn1` [Compound I-103, N-(4-{3-[(4-methylpiperazin-1-yl)sulfonyl]-1H-pyrrolo[2,3-b]pyridin-5-yl}pyridin-2-yl)acetamide]: the inhibition at 1.11 µM was > 99%.

For `COc1ncc(-c2ccnc(NC(C)=O)c2)cc1NS(=O)(=O)c1ccc(F)cc1F` [Compound I-104, N-(5-{[(2,4-difluorophenyl)sulfonyl]amino}-6-methoxy-3,4′-bipyridin-2′-yl)acetamide], the inhibition at 1.11 µM was > 99%.

Take `CC(=O)Nc1cc(-c2cnc3cn(S(=O)(=O)C4CC4)nc3c2)ccn1` [Compound I-105, N-{4-[2-(cyclopropylsulfonyl)-2H-pyrazolo[4,3-b]pyridin-6-yl]pyridin-2-yl}acetamide]: the inhibition at 1.11 µM is > 99%.

With `CC(=O)Nc1cc(-c2cncc(NC(=O)Cc3ccccc3)c2)ccn1` [Compound I-106, N-(2′-acetamido-3,4′-bipyridin-5-yl)-2-phenylacetamide], the inhibition at 1.11 µM turned out to be 64%.

With `COc1ncc(-c2ccnc(NC(C)=O)c2)cc1S(=O)(=O)Nc1ccc(F)cc1F` [Compound I-107, N-{5-[(2,4-difluorophenyl)sulfamoyl]-6-methoxy-3,4′-bipyridin-2′-yl}acetamide], the inhibition at 1.11 µM was > 99%.

For the compound `CC(=O)Nc1cc(-c2cnc(N)c(S(=O)(=O)NCC3CC3)c2)ccn1` [Compound I-108, N-{6-amino-5-[(cyclopropylmethyl)sulfamoyl]-3,4′-bipyridin-2′-yl}acetamide], the inhibition at 1.11 µM is > 99%.

For `CC(=O)Nc1cc(-c2cnc(C)c(NS(=O)(=O)c3ccccc3Cl)c2)ccn1` [Compound I-109, N-(5-{[(2-chlorophenyl)sulfonyl]amino}-6-methyl-3,4′-bipyridin-2′-yl)acetamide], the inhibition at 1.11 µM is > 99%.

For `CC(=O)Nc1cc(-c2cnc(N)c(S(=O)(=O)N(C)CC3CC3)c2)ccn1` [Compound I-110, N-{6-amino-5-[(cyclopropylmethyl)(methyl)sulfamoyl]-3,4′-bipyridin-2′-yl}acetamide], the inhibition at 1.11 µM is > 99%.

For `CC(=O)Nc1cc(-c2cnc(C)c(NS(=O)(=O)c3cc(Cl)ccc3Cl)c2)ccn1` [Compound I-111, N-(5-{[(2,5-dichlorophenyl)sulfonyl]amino}-6-methyl-3,4′-bipyridin-2′-yl)acetamide], the inhibition at 1.11 µM was > 99%.

For the compound `CC(=O)Nc1cc(-c2cnc(N(C)C)c(C(=O)Nc3ccc(F)cc3F)c2)ccn1` [Compound I-112, 2′-acetamido-N-(2,4-difluorophenyl)-6-(dimethylamino)-3,4′-bipyridine-5-carboxamide], the inhibition at 1.11 µM is > 99%.

`CC(=O)Nc1cc(-c2cnc(C)c(NS(=O)(=O)c3ccc(OC(F)(F)F)cc3Cl)c2)ccn1` [Compound I-113, N-[5-({[2-chloro-4-(trifluoromethoxy)phenyl]sulfonyl}amino)-6-methyl-3,4′-bipyridin-2′-yl]acetamide]: the inhibition at 1.11 µM is > 99%.

On to `CC(=O)Nc1cc(-c2cnc(C)c(NS(=O)(=O)C3CC3)c2)ccn1` [Compound I-114, N-{5-[(cyclopropylsulfonyl)amino]-6-methyl-3,4′-bipyridin-2′-yl}acetamide], for which the inhibition at 1.11 µM is > 99%.

In the case of `CC(=O)Nc1cc(-c2cnc(C)c(NC(=O)c3ccc(F)cc3F)c2)ccn1` [Compound I-115, N-(2′-acetamido-6-methyl-3,4′-bipyridin-5-yl)-2,4-difluorobenzamide], the inhibition at 1.11 µM came out at 68%.

For the compound `CC(=O)Nc1cc(-c2cnc3cn[nH]c3c2)ccn1` [Compound I-116, N-[4-(1H-pyrazolo[4,3-b]pyridin-6-yl)pyridin-2-yl]acetamide], the inhibition at 1.11 µM amounted to 68%.

In the case of `O=C(Nc1cc(-c2cnc3[nH]ncc3c2)ccn1)C1CC1` [Compound I-117, N-[4-(1H-pyrazolo[3,4-b]pyridin-5-yl)pyridin-2-yl]cyclopropanecarboxamide], the inhibition at 1.11 µM was > 99%.

Take `CC(=O)Nc1cc(-c2cncc(S(=O)(=O)N3CCC(F)(F)C3)c2)ccn1` [Compound I-118, N-{5-[(3,3-difluoropyrrolidin-1-yl)sulfonyl]-3,4′-bipyridin-2′-yl}acetamide]: the inhibition at 1.11 µM was > 99%.

In the case of `CC(=O)Nc1cc(-c2cnc(N)c(S(=O)(=O)N(C)C)c2)ccn1` [Compound I-119, N-[6-amino-5-(dimethylsulfamoyl)-3,4′-bipyridin-2′-yl]acetamide], the inhibition at 1.11 µM was > 99%.

As for `CCN(CC)S(=O)(=O)c1cncc(-c2ccnc(NC(C)=O)c2)c1` [Compound I-120, N-[5-(diethylsulfamoyl)-3,4′-bipyridin-2′-yl]acetamide], the inhibition at 1.11 µM was > 99%.

As to `CC(=O)Nc1cc(-c2cnc(N)c(C(=O)Nc3cc(C)cnn3)c2)ccn1` [Compound I-121, 2′-acetamido-6-amino-N-(5-methylpyridazin-3-yl)-3,4′-bipyridine-5-carboxamide], the inhibition at 1.11 µM was > 99%.

For the compound `CC(=O)Nc1cc(-c2cnc(N)c(S(=O)(=O)O)c2)ccn1` [Compound I-122, 2′-acetamido-6-amino-3,4′-bipyridine-5-sulfonic acid], the inhibition at 1.11 µM was > 99%.

As to `COc1cccc(S(=O)(=O)Nc2cc(-c3ccnc(NC(C)=O)c3)cnc2C)c1` [Compound I-123], the inhibition at 1.11 µM was > 99%.

On to `CCN(CC)S(=O)(=O)c1cc(-c2ccnc(NC(C)=O)c2)cnc1N` [Compound I-124, N-[6-amino-5-(diethylsulfamoyl)-3,4′-bipyridin-2′-yl]acetamide], for which the inhibition at 1.11 µM worked out at 91%.

Turning to `CC(=O)Nc1cc(-c2cnc(N)c(C(=O)N3Cc4ccccc4C3)c2)ccn1` [Compound I-125, N-[6-amino-5-(1,3-dihydro-2H-isoindoI-2-ylcarbonyl)-3,4′-bipyridin-2′-yl]acetamide], the inhibition at 1.11 µM was > 99%.

These data come from patent publication US9802960B2 (MILLENNIUM PHARMACEUTICALS, INC., priority 2014, dated 2017).
